Measurements: US20070269512A1, “GASTRORETENTIVE SUSTAINED RELEASE FORMULATIONS” (priority 2006, published 2007)

Experiment: Pharmacokinetic study, plasma concentrations by LC-MS/MS
Parameters: species or system beagle dogs
Conditions: dog, in vivo
Protocol: Each overnight-fasted dog in group 1 received an intravenous bolus dose administration (1 mg/kg) of the compound of Formula (I). Following i.v. dose administration, blood samples (˜3 mL) were collected via jugular venipuncture, or other suitable site, into EDTA tubes and placed on wet ice, at predose (0.0), 0.25, 0.5, 1, 2, 4, 8, and 24 hours post dose. Each overnight-fasted dog in groups 2-5 received a single oral dose (200 mg) of compound of Formula (I). Following oral dose administration, blood samples (˜3 mL) were collected via jugular venipuncture, or other suitable site, into EDTA tubes and placed on wet ice, at predose (0.0), 0.25, 0.5, 1, 2, 4, 8, 24, 36, and 48 hours post dose. Plasma was harvested by centrifugation, each plasma sample are split into approximately equal parts before being frozen at −70° C. Food was returned after the 4 hour blood sample is collected. All samples were processed within two hours of collection. All samples are labeled with the study number, test article, dose, time interval, species, and animal identification number.
One set of plasma samples were analyzed for unchanged compound of Formula (I) concentrations using a liquid chromatographic-triple quadrupole mass spectrometric (LC-MS/MS) assay procedure. Any remaining plasma was retained for possible metabolite profiling. […]

colonic absorption: very poor colonic absorption
Compound: Cc1cnc(NCC(F)(F)c2ccccc2)c(=O)n1CC(=O)NCCONC(=N)N [Compound X]
